Results reported in patent publication US8198456B2, “Dihydropyridine derivatives as useful as protein kinase inhibitors” (Bayer Intellectual Property GmbH, priority 2006, dated 2012).

Each compound was assayed against T1, recombinant human c-MET kinase enzyme domain (Homo sapiens, UniProt P08581) (assay: c-MET receptor tyrosine kinase Homogeneous Time Resolved Fluorescence assay (HTRF)). Settings: Biological Example 1 and/or Biological Example 2.
T1 construct: Recombinant c-Met kinase domain (amino acids 960-1390); His (N); made in house; host or cells: baculovirus expression system (insect cells; SF21 is named only for the alternative format)
Assay type: biochemical
How it was run: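 His-tagged c-Met kinase domain (aa 960-1390, baculovirus) phosphorylated biotinylated poly-Glu-Tyr (37 nM) with 20 μM ATP in HEPES pH 7.4, Mg/Mn, DTT, 1% DMSO, 20 min at ambient temperature, EDTA-stopped. HTRF read (PT66-Eu/streptavidin-XL665, 665/620 nm ratio) after 4 h; IC50 from eight 1:3.16 dilutions.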

T1 sequence (P08581 960-1390): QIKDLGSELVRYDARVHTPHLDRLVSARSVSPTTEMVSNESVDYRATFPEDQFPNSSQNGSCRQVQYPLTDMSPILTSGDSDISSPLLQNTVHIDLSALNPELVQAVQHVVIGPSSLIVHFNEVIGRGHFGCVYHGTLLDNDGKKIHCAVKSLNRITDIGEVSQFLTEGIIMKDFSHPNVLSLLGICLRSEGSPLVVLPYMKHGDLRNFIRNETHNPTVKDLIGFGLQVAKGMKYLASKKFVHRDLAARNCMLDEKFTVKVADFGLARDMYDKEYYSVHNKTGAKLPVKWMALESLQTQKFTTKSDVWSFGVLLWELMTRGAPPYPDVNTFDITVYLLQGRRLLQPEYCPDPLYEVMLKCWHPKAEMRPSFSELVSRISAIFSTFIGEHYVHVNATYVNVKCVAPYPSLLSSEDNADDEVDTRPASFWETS

IC50	Structure (SMILES)
< 100 nM	CC(=O)Nc1cccc(C2=C(C#N)C(c3ccc4[nH]ncc4c3)C(C#N)=C(C)N2)c1 (stereo not shown) [compound 253, N-[3-[3,5-dicyano-1,4-dihydro-4-(1H-indazol-5-yl)-6-methyl-2-pyridinyl]-phenyl]-acetamide]
< 100 nM	CC1=C(C#N)C(c2ccc3[nH]ncc3c2)C(C#N)=C(CCN)N1 (stereo not shown) [compound 255, 2-(2-aminoethyl)-1,4-dihydro-4-(1H-indazol-5-yl)-6-methyl-3,5-pyridinedicarbonitrile]
< 100 nM	COC(=O)c1ccc(C2=C(C#N)C(c3ccc4[nH]ncc4c3)C(C#N)=C(C)N2)cc1 (stereo not shown) [compound 257, 4-[3,5-dicyano-1,4-dihydro-4-(1H-indazol-5-yl)-6-methyl-2-pyridinyl]-benzoic acid methyl ester]
< 100 nM	CC1=C(C#N)C(c2ccc3[nH]ncc3c2)C(C#N)=C(c2ccc(CO)cc2)N1 (stereo not shown) [compound 258, 1,4-dihydro-2-[4-(hydroxymethyl)phenyl]-4-(1H-indazol-5-yl)-6-methyl-3,5-pyridinedicarbonitrile]
< 100 nM	CC1=C(C#N)C(c2ccc3[nH]nc(N)c3c2)C(C#N)=C(c2ccccc2)N1 (stereo not shown) [compound 259, 4-(3-amino-1H-indazol-5-yl)-1,4-dihydro-2-methyl-6-phenyl-3,5-pyridinedicarbonitrile]
< 100 nM	CC1=C(C#N)C(c2ccc3[nH]ncc3c2)C(C#N)=C(c2ccc(C(=O)NCCN3CCOCC3)cc2)N1 (stereo not shown) [compound 261, 4-[3,5-dicyano-1,4-dihydro-4-(1H-indazol-5-yl)-6-methyl-2-pyridinyl]-N-[2-(4-morpholinyl)ethyl]-benzamide]
< 100 nM	CC1=C(C#N)C(c2ccc3[nH]ncc3c2)C(C#N)=C(c2ccncc2)N1 (stereo not shown) [compound 265, 1,4-dihydro-4-(1H-indazol-5-yl)-6-methyl-[2,4′-bipyridine]-3,5-dicarbonitrile]
< 100 nM	CC1=C(C#N)C(c2ccc3[nH]ncc3c2)C(C#N)=C(c2cccnc2)N1 (stereo not shown) [compound 266, 1,4-dihydro-4-(1H-indazol-5-yl)-6-methyl-[2,3′-bipyridine]-3,5-dicarbonitrile]
< 100 nM	CC1=C(C#N)C(c2ccc3[nH]ncc3c2)C(C#N)=C(c2ccco2)N1 (stereo not shown) [compound 267, 2-(2-furanyl)-1,4-dihydro-4-(1H-indazol-5-yl)-6-methyl-3,5-pyridinedicarbonitrile]
< 100 nM	CCOC(=O)C1=C(C#N)C(c2ccc3[nH]ncc3c2)C(C#N)=C(C)N1 (stereo not shown) [compound 268, 3,5-dicyano-1,4-dihydro-4-(1H-indazol-5-yl)-6-methyl-2-pyridinecarboxylic acid ethyl ester]
< 100 nM	CCC1=C(C#N)C(c2ccc3[nH]ncc3c2)C(C#N)=C(CC)N1 [compound 269, 2,6-diethyl-1,4-dihydro-4-(1H-indazol-5-yl)-3,5-pyridinedicarbonitrile]
< 100 nM	CC1=C(C#N)C(c2ccc3[nH]ncc3c2)C(C#N)=C(c2ccc(N3CCOCC3)nc2)N1 (stereo not shown) [compound 271, 1,4-dihydro-4-(1H-indazol-5-yl)-6-methyl-6′-(4-morpholinyl)-[2,3′-bipyridine]-3,5-dicarbonitrile]
< 100 nM	CC1=C(C#N)C(c2ccc3[nH]ncc3c2)C(C#N)=C(c2ccc(N3CCOCC3)c(F)c2)N1 (stereo not shown) [compound 272, 2-[3-fluoro-4-(4-morpholinyl)phenyl]-1,4-dihydro-4-(1H-indazol-5-yl)-6-methyl-3,5-pyridinedicarbonitrile]
< 100 nM	CC1=C(C#N)C(c2ccc3[nH]ncc3c2)C(C#N)=C(c2ccc(N(C)CCO)nc2)N1 (stereo not shown) [compound 273, 1,4-dihydro-6′-[(2-hydroxyethyl)methylamino]-4-(1H-indazol-5-yl)-6-methyl-[2,3′-bipyridine]-3,5-dicarbonitrile]
< 100 nM	CC1=C(C#N)C(c2ccc3[nH]ncc3c2)C(C#N)=C(c2ccc(NCCN3CCOCC3)nc2)N1 (stereo not shown) [compound 274, 1,4-dihydro-4-(1H-indazol-5-yl)-6-methyl-6′-[[2-(4-morpholinyl)ethyl]amino]-[2,3′-bipyridine]-3,5-dicarbonitrile]
< 100 nM	CC1=C(C#N)C(c2ccc3[nH]ncc3c2)C(C#N)=C(c2ccc(NCCN(C)C)nc2)N1 (stereo not shown) [compound 275]
< 100 nM	CC1=C(C#N)C(c2ccc3[nH]ncc3c2)C(C#N)=C(c2ccnc(Cl)c2)N1 (stereo not shown) [compound 276, 2′-chloro-1,4-dihydro-4-(1H-indazol-5-yl)-6-methyl-[2,4′-bipyridine]-3,5-dicarbonitrile]
< 100 nM	CC1=C(C#N)C(c2ccc3[nH]ncc3c2)C(C#N)=C(c2ccnc(NCCN3CCOCC3)c2)N1 (stereo not shown) [compound 278, 1,4-dihydro-4-(1H-indazol-5-yl)-6-methyl-2′-[[2-(4-morpholinyl)ethyl]amino]-[2,4′-bipyridine]-3,5-dicarbonitrile]
< 100 nM	CC1=C(C#N)C(c2ccc3[nH]nc(N)c3c2)C(C#N)=C(c2ccoc2C)N1 (stereo not shown) [compound 282, 4-(3-amino-1H-indazol-5-yl)-1,4-dihydro-2-methyl-6-(2-methyl-3-furanyl)-3,5-pyridinedicarbonitrile]
< 100 nM	CC1=C(C#N)C(c2ccc3[nH]ncc3c2)C(C#N)=C(C)N1C [compound 289, 1,4-dihydro-4-(1H-indazol-5-yl)-1,2,6-trimethyl-3,5-pyridinedicarbonitrile]
< 100 nM	CC1=C(C#N)C(c2ccc3[nH]ncc3c2)C(C#N)=C(C)N1CCO [compound 292, 1,4-dihydro-1-(2-hydroxyethyl)-4-(1H-indazol-5-yl)-2,6-dimethyl-3,5-pyridinedicarbonitrile]

More lines, now with the values behind:

Structure (SMILES)	IC50
CC1=C(C#N)C(c2ccc3[nH]nc(N)c3c2)C(C#N)=C(c2ccc(Cl)cc2)N1 (stereo not shown) [compound 264, 4-(3-amino-1H-indazol-5-yl)-2-(4-chlorophenyl)-1,4-dihydro-6-methyl-3,5-pyridinedicarbonitrile]	< 100 nM
CC1=C(C#N)C(c2ccc3[nH]nc(N)c3c2)C(C#N)=C(c2cc(C)oc2C)N1 (stereo not shown) [compound 281, 4-(3-amino-1H-indazol-5-yl)-2-(2,5-dimethyl-3-furanyl)-1,4-dihydro-6-methyl-3,5-pyridinedicarbonitrile]	< 100 nM
COC(=O)c1cccc(C2C(C#N)=C(C)N(C)C(C)=C2C#N)c1 [compound 284, 3-(3,5-dicyano-1,4-dihydro-1,2,6-trimethyl-4-pyridinyl)-benzoic acid, methyl ester]	500 to 2500 nM
CC1=C(C#N)C(c2ccc3[nH]nc(N)c3c2)C(C#N)=C(C)N1C [compound 288, 4-(3-amino-1H-indazol-5-yl)-1,4-dihydro-1,2,6-trimethyl-3,5-pyridinedicarbonitrile]	< 100 nM
CCOC(=O)CN1C(C)=C(C#N)C(c2ccc3[nH]ncc3c2)C(C#N)=C1C [compound 290, 3,5-dicyano-4-(1H-indazol-5-yl)-2,6-dimethyl-1(4H)-pyridineacetic acid ethyl ester]	< 100 nM
CC1=C(C#N)C(c2ccc3[nH]nc(N)c3c2)C(C#N)=C(C)N1Cc1ccccc1 [compound 293, 4-(3-amino-1H-indazol-5-yl)-1,4-dihydro-2,6-dimethyl-1-(phenylmethyl)-3,5-pyridinedicarbonitrile]	< 100 nM
CCN1C(C)=C(C#N)C(c2ccc3[nH]nc(N)c3c2)C(C#N)=C1C [compound 294, 1-ethyl-4-(3-amino-1H-indazol-5-yl)-1,4-dihydro-2,6-dimethyl-3,5-pyridinedicarbonitrile]	< 100 nM
CC1=C(C#N)C(c2ccc3[nH]nc(Cl)c3c2)C(C#N)=C(C)N1CCO [compound 297, 4-(3-chloro-1H-indazol-5-yl)-1,4-dihydro-1-(2-hydroxyethyl)-2,6-dimethyl-3,5-pyridinedicarbonitrile]	< 100 nM
CC1=C(C#N)C(c2ccc3[nH]nc(Cl)c3c2)C(C#N)=C(C)N1C [compound 298, 4-(3-chloro-1H-indazol-5-yl)-1,4-dihydro-1,2,6-trimethyl-3,5-pyridinedicarbonitrile]	< 100 nM
CC1=C(C#N)C(c2ccc3[nH]nc(N)c3c2)C(C#N)=C(C)N1CCO [compound 299, 4-(3-amino-1H-indazol-5-yl)-1,4-dihydro-1-(2-hydroxyethyl)-2,6-dimethyl-3,5-pyridinedicarbonitrile]	< 100 nM
CC1=C(C#N)C(c2ccc3[nH]nc(C)c3c2)C(C#N)=C(C)N1C1CC1 [compound 301, 1-cyclopropyl-1,4-dihydro-2,6-dimethyl-4-(3-methyl-1H-indazol-5-yl)-3,5-pyridinedicarbonitrile]	< 100 nM
C#CCN1C(C)=C(C#N)C(c2ccc3[nH]ncc3c2)C(C#N)=C1C [compound 302, 1,4-dihydro-4-(1H-indazol-5-yl)-2,6-dimethyl-1-(2-propynyl)-3,5-pyridinedicarbonitrile]	< 100 nM
CC1=C(C#N)C(c2ccc3[nH]ncc3c2)C(C#N)=C2CCCCN12 (stereo not shown) [compound 304, 6,7,8,9-tetrahydro-2-(1H-indazol-5-yl)-4-methyl-2H-quinolizine-1,3-dicarbonitrile]	< 100 nM
CC1=C(C#N)C(c2ccc3[nH]nc(C)c3c2)C(C#N)=C(C)N1C [compound 306, 1,4-dihydro-1,2,6-trimethyl-4-(3-methyl-1H-indazol-5-yl)-3,5-pyridinedicarbonitrile]	< 100 nM
CC1=C(C#N)C(c2ccc3[nH]nc(NCCN4CCOCC4)c3c2)C(C#N)=C(C)N1 [compound 307, 1,4-dihydro-2,6-dimethyl-4-[3-[[2-(4-morpholinyl)ethyl]amino]-1H-indazol-5-yl]-3,5-pyridinedicarbonitrile]	< 100 nM
CC1=C(C#N)C(c2ccc3[nH]nc(NCCN)c3c2)C(C#N)=C(C)N1 [compound 308, 4-[3-[(2-aminoethyl)amino]-1H-indazol-5-yl]-1,4-dihydro-2,6-dimethyl-3,5-pyridinedicarbonitrile]	< 100 nM
